Several values for one entry are separate records, joined by “and”; a condition that tells them apart may be missing. Equal values may be shown once.
Experiments:
Experiment in all cases: Microfluidic Mobility-Shift Assay
Conditions in all cases: pH 7
[1] = molecular target: T1, Isoform Beta of cGMP-dependent protein kinase 1 [1-351,G182E] (Human, UniProt Q13976, G182E)
T1 construct: 1-351

[2] = molecular target: T2, Isoform Beta of cGMP-dependent protein kinase 1 [5-676,G306E] (Human, UniProt Q13976, G306E)
T2 construct: 5-676

[3] = molecular target: T3, cGMP-dependent protein kinase 2 [41-418,G232E] (Human, UniProt Q13237, G232E)
T3 construct: 41-418

[4] = molecular target: T4, cGMP-dependent protein kinase 2 (Homo sapiens, UniProt Q13237)
T4 sequence (Q13237 whole entry): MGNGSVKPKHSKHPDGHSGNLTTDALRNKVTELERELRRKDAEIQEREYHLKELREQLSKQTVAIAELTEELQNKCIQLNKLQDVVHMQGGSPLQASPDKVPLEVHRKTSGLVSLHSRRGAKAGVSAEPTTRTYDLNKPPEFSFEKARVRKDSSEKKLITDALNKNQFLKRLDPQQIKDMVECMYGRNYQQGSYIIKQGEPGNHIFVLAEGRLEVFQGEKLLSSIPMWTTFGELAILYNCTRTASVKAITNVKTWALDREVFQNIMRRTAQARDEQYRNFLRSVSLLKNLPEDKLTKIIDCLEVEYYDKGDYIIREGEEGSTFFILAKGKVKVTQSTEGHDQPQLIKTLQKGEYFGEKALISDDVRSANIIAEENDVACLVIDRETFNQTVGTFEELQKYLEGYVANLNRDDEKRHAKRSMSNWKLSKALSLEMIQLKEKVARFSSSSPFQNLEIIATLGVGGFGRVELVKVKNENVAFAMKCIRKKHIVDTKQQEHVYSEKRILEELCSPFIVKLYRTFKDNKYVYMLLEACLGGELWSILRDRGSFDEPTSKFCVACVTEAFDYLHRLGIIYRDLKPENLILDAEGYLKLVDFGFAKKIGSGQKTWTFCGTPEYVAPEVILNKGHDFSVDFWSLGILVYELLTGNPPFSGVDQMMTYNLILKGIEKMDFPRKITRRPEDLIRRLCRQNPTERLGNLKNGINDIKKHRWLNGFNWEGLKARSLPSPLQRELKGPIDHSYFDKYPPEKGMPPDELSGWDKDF

[5] = molecular target: T5, Isoform Beta of cGMP-dependent protein kinase 1 [1-351] (Human, UniProt Q13976)
T5 construct: 1-351
T5 sequence (Q13976 whole entry): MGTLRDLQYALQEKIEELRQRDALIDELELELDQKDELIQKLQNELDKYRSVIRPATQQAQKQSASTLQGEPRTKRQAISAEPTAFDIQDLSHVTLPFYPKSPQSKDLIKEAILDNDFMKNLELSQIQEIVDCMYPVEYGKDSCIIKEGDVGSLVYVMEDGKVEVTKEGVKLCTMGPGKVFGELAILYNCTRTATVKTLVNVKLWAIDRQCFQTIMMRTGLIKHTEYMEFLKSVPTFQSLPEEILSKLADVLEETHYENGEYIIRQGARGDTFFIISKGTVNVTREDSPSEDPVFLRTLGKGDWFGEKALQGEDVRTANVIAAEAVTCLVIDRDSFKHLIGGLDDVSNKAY

[6] = molecular target: T6, cGMP-dependent protein kinase 2 [41-418,G356E] (Human, UniProt Q13237, G356E)
T6 construct: 41-418

[7] = molecular target: T7, Isoform Beta of cGMP-dependent protein kinase 1 [1-351,G306E] (Human, UniProt Q13976, G306E)
T7 construct: 1-351

[8] = molecular target: T8, cGMP-dependent protein kinase 2 [41-418] (Human, UniProt Q13237)
T8 construct: 41-418
T8 sequence (Q13237 whole entry): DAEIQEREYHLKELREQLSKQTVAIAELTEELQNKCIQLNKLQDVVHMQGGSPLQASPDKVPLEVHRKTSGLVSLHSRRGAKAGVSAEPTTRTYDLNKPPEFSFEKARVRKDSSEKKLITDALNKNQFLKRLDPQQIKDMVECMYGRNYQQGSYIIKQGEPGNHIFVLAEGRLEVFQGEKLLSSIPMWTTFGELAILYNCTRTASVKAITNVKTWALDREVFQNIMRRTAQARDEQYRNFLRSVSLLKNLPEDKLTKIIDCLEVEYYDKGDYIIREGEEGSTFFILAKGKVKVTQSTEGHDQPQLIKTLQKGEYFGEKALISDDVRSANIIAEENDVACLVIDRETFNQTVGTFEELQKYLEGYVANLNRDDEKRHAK

T3 sequence (Q13237 41-418 G232E): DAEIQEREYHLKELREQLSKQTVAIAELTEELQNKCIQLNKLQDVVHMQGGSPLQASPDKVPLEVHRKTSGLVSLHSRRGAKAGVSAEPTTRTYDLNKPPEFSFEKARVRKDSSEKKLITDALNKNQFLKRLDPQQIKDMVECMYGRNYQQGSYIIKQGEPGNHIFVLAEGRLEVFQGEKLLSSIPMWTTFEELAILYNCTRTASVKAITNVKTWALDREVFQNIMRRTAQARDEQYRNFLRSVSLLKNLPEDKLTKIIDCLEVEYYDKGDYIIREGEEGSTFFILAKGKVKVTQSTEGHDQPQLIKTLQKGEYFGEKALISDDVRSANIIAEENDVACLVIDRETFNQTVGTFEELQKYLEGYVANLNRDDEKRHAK
T2 sequence (Q13976 as listed by the source G306E): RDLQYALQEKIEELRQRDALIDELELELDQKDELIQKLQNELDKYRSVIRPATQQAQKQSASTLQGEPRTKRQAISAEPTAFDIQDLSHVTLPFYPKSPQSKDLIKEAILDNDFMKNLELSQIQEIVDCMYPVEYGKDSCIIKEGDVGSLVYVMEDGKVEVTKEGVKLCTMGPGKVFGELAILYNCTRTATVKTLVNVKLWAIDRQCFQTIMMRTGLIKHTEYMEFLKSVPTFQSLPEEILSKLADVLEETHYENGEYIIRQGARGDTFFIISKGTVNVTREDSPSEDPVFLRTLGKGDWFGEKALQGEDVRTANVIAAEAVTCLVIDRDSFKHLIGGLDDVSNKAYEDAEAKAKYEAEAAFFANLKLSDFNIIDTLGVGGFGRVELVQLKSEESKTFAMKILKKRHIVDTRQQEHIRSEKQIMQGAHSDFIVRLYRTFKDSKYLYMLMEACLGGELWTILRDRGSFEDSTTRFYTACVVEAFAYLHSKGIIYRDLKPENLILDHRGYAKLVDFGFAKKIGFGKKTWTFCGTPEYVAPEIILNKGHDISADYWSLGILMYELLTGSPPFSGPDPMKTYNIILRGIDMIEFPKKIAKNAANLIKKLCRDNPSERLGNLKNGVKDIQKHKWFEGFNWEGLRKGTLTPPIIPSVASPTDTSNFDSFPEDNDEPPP
T7 sequence (Q13976 as listed by the source G306E): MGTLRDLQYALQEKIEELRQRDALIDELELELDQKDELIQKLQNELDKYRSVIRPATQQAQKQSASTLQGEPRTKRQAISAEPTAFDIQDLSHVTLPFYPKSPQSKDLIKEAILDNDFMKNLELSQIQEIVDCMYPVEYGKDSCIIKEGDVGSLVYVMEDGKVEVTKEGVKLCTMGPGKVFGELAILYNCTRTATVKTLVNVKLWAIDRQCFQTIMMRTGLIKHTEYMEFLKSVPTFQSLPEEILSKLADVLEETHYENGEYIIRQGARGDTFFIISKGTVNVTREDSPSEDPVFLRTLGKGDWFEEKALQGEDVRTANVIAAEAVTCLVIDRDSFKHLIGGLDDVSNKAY
T1 sequence (Q13976 as listed by the source G182E): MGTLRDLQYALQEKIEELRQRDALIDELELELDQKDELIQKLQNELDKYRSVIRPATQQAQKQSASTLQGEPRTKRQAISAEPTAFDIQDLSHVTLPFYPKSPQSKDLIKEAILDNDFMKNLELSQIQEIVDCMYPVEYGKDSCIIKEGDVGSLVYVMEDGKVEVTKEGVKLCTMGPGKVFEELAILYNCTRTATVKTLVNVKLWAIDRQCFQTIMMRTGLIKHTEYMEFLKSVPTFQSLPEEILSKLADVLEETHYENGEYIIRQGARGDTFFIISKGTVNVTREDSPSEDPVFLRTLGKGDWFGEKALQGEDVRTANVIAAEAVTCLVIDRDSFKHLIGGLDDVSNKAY
T6 sequence (Q13237 41-418 G356E): as the sequence (Q13237 41-418 G232E) above, with E192G, G316E counted along it

| EC50 [1] | EC50 [2] | EC50 [3] | EC50 [5] | EC50 [7] | SMILES | EC50 [4] [nM] | EC50 [6] [nM] | EC50 [8] [nM] |
| --- | --- | --- | --- | --- | --- | --- | --- | --- |
| 328 nM and 206 nM | 370 nM and 249 nM | 184 nM and 116 nM | 163 nM and 212 nM | 4.2 nM and 7.7 nM | Nc1nc(=O)c2nc(Sc3ccc(Cl)cc3)n([C@@H]3O[C@@H]4COP(=O)(O)O[C@H]4[C@H]3O)c2[nH]1 [8-pCP-cGMP] | – | – | – |
| 5.8 nM | 18 nM | 1960 nM | 3.8 nM | < 2 nM | O=c1c2ncn([C@@H]3O[C@@H]4COP(=O)(O)O[C@H]4[C@H]3O)c2[nH]c2nc(-c3ccccc3)cn12 [PET-cGMP] | 225 | 5.3 | 193 |

| SMILES | EC50 [1] | EC50 [2] | EC50 [3] | EC50 [5] | EC50 [7] | EC50 [4] [nM] | EC50 [6] [nM] | EC50 [8] [nM] |
| --- | --- | --- | --- | --- | --- | --- | --- | --- |
| Nc1nc(O)c2nc(Br)n([C@@H]3O[C@@H]4COP(=O)(O)O[C@H]4[C@H]3O)c2n1 [2-amino-8-bromo-9-[(2R,4aR,6R,7R,7aS)-2,7-dihydroxy-2-oxotetrahydro-2H,4H-2lambda~5~-furo[3,2-d][1,3,2]dioxaphosphinin-6-yl]-1,9-dihydro-6H-purin-6-one] | 765 nM | 206 nM | 11 nM | 222 nM | < 2 nM | 58 | 30 | 20 |
